Measurements: patent US4885239A, “Rapid differentiation of bacteria using polyether antibiotics” (Eastman Kodak Company, priority 1986, dated 1989)

Columns and labels:
S. aureus (gram +) = assay: inhibition of the reduction of RIND IX (Example 7), S. aureus; type: cell-based, Staphylococcus aureus (ATCC 25923); conditions: Staphylococcus aureus, 0.5 h, about 1.7×10^-4 molar, calcium chloride, 635 nm, 30 minutes, 37° C., read-out: Corrected Percent Inhibition
Experimental: (§1) gram-negative bacteria Enterobacter cloacae (ATCC 23355), Escherichia coli (ATCC 25922), Proteus vulgaris (ATCC 13315), Klebsiella pneumoniae (ATCC 13883) and Pseudomonas aeruginosa (ATCC 27853), and gram-positive bacteria Staphylococcus aureus (ATCC 25923) and Streptococcus pyogenes (ATCC 19615), and brain heart infusion (BHI) broth from Difco Laboratories (Detroit, Mich.),
(§2) Bacterial suspensions were prepared by growing the cells in BHI to stationary phase overnight at 37° C. P. aeruginosa was grown with agitation. About 40 ml of overnight cultures were centrifuged, decanted and washed once with 0.05 molar potassium phosphate buffer or 0.05 molar N-2-hydroxyethylpiperazine-N'-2-ethanesulfonic acid (HEPES) buffer, pH 7.8, and resuspended in buffer.
(§3) Optical density readings (OD) were made at 635 nm at 0 minutes and after incubation at 37° C. for 30 minutes for all solutions, and the change (ΔOD) was determined. […] The corrected percent inhibition was calculated by dividing the difference between ΔOD obtained from a Control test without antibiotic and the ΔOD of the test, by the ΔOD of the Control without antibiotic. All readings were corrected by subtracting readings of the appropriate background control.
(§4) A dispersion of the RIND IX compound was prepared by dissolving the RIND compound in N,N-dimethylformamide (16 mg/ml of solvent acidified with 0.1% concentrated sulfuric acid). […]

E. coli (gram -) = assay: inhibition of the reduction of RIND IX (Example 7), E. coli; type: cell-based, Escherichia coli (ATCC 25922); conditions: about 1.7×10^-4 molar, calcium chloride, 635 nm, 30 minutes, 37° C.
Experimental: as §1, §2, §3, §4

[1] = system: viable gram-positive and gram-negative bacteria; assay: differentiation of viable gram-positive and gram-negative bacteria (outcome in words); type: cell-based; conditions: RIND IX; Example 7
Experimental: as §1, §2
TERGITOL 7 anionic surfactant was used to differentiate viable bacteria according to the prior art method. Various concentrations of TERGITOL 7 surfactant were mixed with a 10% glucose solution (50 μl), 3-(4,5-dimethyl-2-thiazolyl)-2,5-diphenyl-2N-tetrazolium bromide (MTT) in methanol (25 μl at 5 mg/ml) or a RIND VII dispersion (1.5 ml) and phenazine methosulfate ETA (25 μl at 3 mg/ml methanol). The volume of each test solution was brought to 3 ml with potassium phosphate buffer. A cell suspension (100 μl at about 10^8 cells/ml) was then added. The solutions were incubated at 37° C. for 15 and 30 minutes in the presence of either E. coli, a gram (-) bacterium, or S. aureus, a gram (+) bacterium. The amount of dye formed was then determined visually and graded as follows: 0 indicates no dye formation, +/- indicates faint dye formation, 1+ indicates light dye formation, 2+ indicates moderate dye formation, 3+ indicates strong dye formation, and 4+ indicates very strong dye formation.
Calimycin, a polyether antibiotic, was similarly used with RIND VII in the differentiation of bacteria. Assays were performed as described above, except that 25 μl of 1 molar calcium chloride solution was added to each test solution and the P. aeruginosa response was measured in the presence of 10% yeast extract as the carbon source instead of glucose. The final concentration of calimycin in each test was 10^-3 molar.
The test solutions were prepared by adding the following, in order: 1.2 ml HEPES, 50 μl glucose solution, 1.5 ml RIND VII dispersion, 100 μl antibiotic solution, 100 μl cell suspension and 25 μl ETA solution. Cell control solutions contained all reagents except antibiotics. Background Controls consisted of both buffer and solution controls. The buffer control contained all reagents except antibiotics and cells. The solution control contained all reagents except cells.
Optical density readings (OD) were made at 635 nm at 0 minutes and after incubation at 37° C. for 30 minutes for all solutions, and the change (ΔOD) was determined. Table V below lists the results expressed as corrected percent inhibition of the reduction of RIND VII. The corrected percent inhibition was calculated by dividing the difference between ΔOD obtained from a Control test without antibiotic and the ΔOD of the test, by the ΔOD of the Control without antibiotic. All readings were corrected by subtracting readings of the appropriate background control.
Relative fluorescence was measured using a standard spectrophotometer modified to read at excitation of 540 nm and emission of 620 nm. The change (Δ) in relative fluorescence was determined after 30 minutes at 37° C. for several concentration levels of antibiotic.
Optical density measurements were obtained at 540 nm using a standard spectrophotometer and the change in optical density (ΔOD) was determined after 30 minutes at 37° C. The resulting data are shown in Table VII below for several concentrations of antibiotic. It is clear from the data that the composition of this example was useful for differentiating bacteria. […]

## C[C@H](CCC(=O)O)C[C@H](C)C[C@H](C)C(=O)/C=C(\O)[C@H](C)C[C@H](C)C/C=C/[C@@H](C)[C@@H](O)[C@@H](C)[C@@H](O)C[C@@H]1CC[C@@](C)([C@H]2CC[C@@](C)([C@@H](C)O)O2)O1 [ionomycin]
S. aureus (gram +)
  inhibition at 170 µM: 59.7%
E. coli (gram -)
  Corrected Percent Inhibition: No Inhibition
[1]
  differentiating gram-positive and gram-negative bacteria: can be used to differentiate gram-positive and gram-negative bacteria
